According to ChEMBL document CHEMBL1201862, “PubChem BioAssay data set” (2004):
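Where inhibition never reached the appropriate level, the endpoint shown equals the highest concentration tested. Otherwise, values were interpolated linearly from a five-concentration, 48-hour dose response in 96-well plates. At the GI50, growth is halved.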 Active and inactive are the calls of the source. Cut-off read from the data, not from the text of the source: active = GI50 up to about 1.1 µM and inactive = higher.

Key:
Assay in all cases: growth of human tumour cells (NCI), 48 h
[1] = test system: OVCAR-8
[2] = test system: MDA-N
[3] = test system: PC-3
[4] = test system: CAKI-1
[5] = test system: IGROV-1
[6] = test system: T47D
[7] = test system: HCT-15
[8] = test system: KM12
[9] = test system: NCI-H23
[10] = test system: RXF 393
[11] = test system: OVCAR-4
[12] = test system: SF-268
[13] = test system: UACC-62
[14] = test system: SK-MEL-2
[15] = test system: SN12C
[16] = test system: NCI-H226
[17] = test system: SK-OV-3
[18] = test system: MOLT-4
[19] = test system: SW-620
[20] = test system: Malme-3M
[21] = test system: HCT-116
[22] = test system: RPMI-8226
[23] = test system: SNB-19
[24] = test system: HT-29
[25] = test system: EKVX
[26] = test system: K562
[27] = test system: A549
[28] = test system: SF-295
[29] = test system: ACHN
[30] = test system: NCI-H522
[31] = test system: MDA-MB-231
[32] = test system: SF-539
[33] = test system: SK-MEL-5
[34] = test system: UO-31
[35] = test system: BT-549
[36] = test system: UACC-257
[37] = test system: HCC 2998
[38] = test system: OVCAR-5
[39] = test system: LOX IMVI
[40] = test system: SNB-75
[41] = test system: HL-60
[42] = test system: NCI-H460
[43] = test system: DU-145
[44] = test system: MCF7
[45] = test system: OVCAR-3
[46] = test system: COLO 205
[47] = test system: HOP-62
[48] = test system: SK-MEL-28
[49] = test system: A498
[50] = test system: U-251
[51] = test system: Hs-578T
[52] = test system: NCI/ADR-RES
[53] = test system: SR
[54] = test system: CCRF-CEM
[55] = test system: MDA-MB-435
[56] = test system: HOP-92
[57] = test system: TK-10
[58] = test system: M14
[59] = test system: M19-MEL
[60] = test system: SNB-78
[61] = test system: DMS-114
[62] = test system: LXFL 529
[63] = test system: KM-20L2
[64] = test system: 786-0
[65] = test system: DMS-273
[66] = test system: DLD-1

Measured: GI50

O=C(OC1C#CCSCC#C/C=C\1)c1ccc2c(c1)C(=O)c1ccccc1C2=O (centres undefined)
inactive: [1] 68.5 µM | [2] > 100 µM | [3] > 100 µM | [4] 37.5 µM | [5] 34.8 µM | [6] > 100 µM | [8] > 100 µM | [9] 40.7 µM | [10] 18.4 µM | [11] > 100 µM | [12] 21.6 µM | [13] 11.9 µM | [14] 35.8 µM | [15] > 100 µM | [16] 48.8 µM | [17] 18.1 µM | [18] 81.7 µM | [19] > 100 µM | [20] > 100 µM | [21] 36.5 µM | [22] > 100 µM | [23] 23.6 µM | [24] > 100 µM | [25] 64.7 µM | [26] > 100 µM | [27] > 100 µM | [28] 28 µM | [29] 55 µM | [30] 23.8 µM | [31] 26.2 µM | [32] 15.5 µM | [33] 87.1 µM | [34] 42.7 µM | [35] 22.6 µM | [36] > 100 µM | [37] > 100 µM | [38] > 100 µM | [39] > 100 µM | [40] 26.4 µM | [41] > 100 µM | [42] > 100 µM | [43] > 100 µM | [44] 41.2 µM | [45] > 100 µM | [46] 82.2 µM | [47] 16.5 µM | [48] > 100 µM | [49] 33.3 µM | [50] 16.2 µM | [51] 24.2 µM | [52] 78.9 µM | [53] 25.5 µM | [54] > 100 µM | [55] > 100 µM | [56] 2.79 µM | [57] 27.9 µM | [58] 65.2 µM
> 100 µM: [7]

CCOC(=O)C(N=C(c1ccccc1)c1ccccc1)N(C(=O)OC(C)(C)C)C(=O)OC(C)(C)C (centres undefined)
inactive: [59] > 100 µM | [1] > 100 µM | [60] > 100 µM | [61] > 100 µM | [4] > 100 µM | [5] > 100 µM | [8] > 100 µM | [9] > 100 µM | [10] 19.8 µM | [11] > 100 µM | [62] 75.2 µM | [12] > 100 µM | [13] > 100 µM | [14] > 100 µM | [15] > 100 µM | [16] > 100 µM | [17] > 100 µM | [18] > 100 µM | [63] > 100 µM | [19] > 100 µM | [20] > 100 µM | [21] > 100 µM | [22] 64.3 µM | [23] > 100 µM | [24] > 100 µM | [64] > 100 µM | [25] > 100 µM | [26] > 100 µM | [27] > 100 µM | [28] > 100 µM | [29] > 100 µM | [30] > 100 µM | [32] > 100 µM | [33] > 100 µM | [34] > 100 µM | [36] > 100 µM | [37] > 100 µM | [38] > 100 µM | [40] 82 µM | [45] > 100 µM | [46] > 100 µM | [48] > 100 µM | [50] > 100 µM | [53] 69.3 µM | [56] 7.45 µM | [57] > 100 µM
> 100 µM: [7]

Cc1ccc(NC(=O)SCCC(=O)O)cc1NC(=O)SCCC(=O)O
> 100 µM: [7]
inactive: [1] > 100 µM | [60] > 100 µM | [61] > 100 µM | [4] > 100 µM | [5] > 100 µM | [8] > 100 µM | [9] > 100 µM | [10] > 100 µM | [11] > 100 µM | [62] > 100 µM | [12] > 100 µM | [14] > 100 µM | [15] > 100 µM | [16] > 100 µM | [18] > 100 µM | [63] > 100 µM | [19] > 100 µM | [21] > 100 µM | [22] > 100 µM | [23] > 100 µM | [24] > 100 µM | [64] > 100 µM | [25] > 100 µM | [26] > 100 µM | [27] > 100 µM | [28] > 100 µM | [29] > 100 µM | [30] > 100 µM | [32] > 100 µM | [34] > 100 µM | [36] > 100 µM | [37] > 100 µM | [38] > 100 µM | [39] > 100 µM | [41] > 100 µM | [42] > 100 µM | [45] > 100 µM | [65] > 10 µM | [46] > 10 µM | [47] > 100 µM | [48] > 100 µM | [49] > 100 µM | [50] > 100 µM | [53] > 100 µM | [54] > 100 µM | [66] > 10 µM | [57] > 100 µM | [58] > 100 µM
